Laboratory results: PMC6875038, “Comparative Pharmacokinetic Studies of Four Ginsenosides in Rat Plasma by UPLC-MS/MS after Oral Administration of Panax quinquefolius-Acorus gramineus and Panax quinquefolius Extracts” (Journal of Analytical Methods in Chemistry, 2019)
Where two headings read alike, the source gives them in different places.

Legend:
[1] = Stability of the ginsenosides in rat plasma (QC samples); assay type: in vitro ADME; conditions: for Re (%) Postpreparation / Recovery (%) Postpreparation: autosampler 4°C for 12 h; for Re (%) Short term / Recovery (%) Short term / Re (%) Freeze-thaw cycles / Recovery (%) Freeze-thaw cycles: rat plasma; for Re (%) Short term / Recovery (%) Short term: 1 month at −80°C; for Re (%) Freeze-thaw cycles / Recovery (%) Freeze-thaw cycles: three freeze-thaw cycles at −80°C
Method: The standard stock solution was prepared in methanol with four ginsenosides at the final concentration of 1.14 mg/mL for Rb1, 0.10 mg/mL for Rb2, 0.78 mg/mL for Rd, and 1.58 mg/mL for Re. The working standard solution at required concentration was obtained by continuously diluting the stock solution. The IS stock solution was also prepared with methanol at a final concentration of 720 ng/mL. Calibration samples were prepared by mixing solutions of standard mixture, internal standard, and methanol with rat blank plasma at the final concentrations of 3.6, 7.2, 35.6, 71.2, 142.4, 284.8, 569.5, and 1, 139.0 ng/mL for Rb1, 1.6, 3.2, 6.3, 31.3, 62.5, 125.0, 250.0, and 500.0 ng/mL for Rb2, 1.2, 2.4, 4.9, 24.4, 48.8, 97.6, 195.1, and 390.2 ng/mL for Rd, and 2.5, 4.9, 9.9, 49.3, 98.6, 197.1, 394.3, and 788.5 ng/mL for Re. QC samples were also prepared with the same method at low, middle, and high concentrations (7.2, 142.4, and 911.4 ng/mL for Rb1, 3.2, 62.5, and 400.0 ng/mL for Rb2, 2.4, 48.8, and 312.2 ng/mL for Rd, 5.0, 98.6, and 630.8 ng/mL for Re). All solutions were stored at 4°C. The stability of the four analytes was determined by exposing plasma samples to QC at three concentration levels in six replicates. Samples were stored at −80°C for 1 month to assess the short-term storage stability. Freeze-thaw stability was performed after three freeze-thaw cycles at −80°C during three consecutive days. To evaluate the postpreparative stability, extracted QC samples were kept in the autosampler (4°C) for 12 h before analysis. The stability assessment of these samples was calibrated with freshly prepared standard as previously described.

[2] = Pharmacokinetics of four ginsenosides in rat plasma after oral administration of PQ-AG and PQ extracts (UPLC-MS/MS); assay type: in vivo; conditions: male SD rats, n = 6, mean ± SD; for AUC: male, SD, po
Method: Chromatographic analysis was performed on a Waters Acquity UPLC system (Waters Corp., Milford, MA, USA). An ACQUITY UPLC BEH C18 (100 × 2.1 mm, 1.7 μm) column was used for all analytes. The column temperature was at 35°C. The mobile phase was composed of formic acid aqueous solution (A, 0.1%) and acetonitrile (B) at a gradient elution of 25% B at 0–0.5 min, 25%–50% B at 0.5–2.0 min, 50–60% B at 2.0–5.0 min, 60–25% B at 5.0–5.5 min, and 25% B at 5.5–7.0 min, with a flow rate of 0.2 mL/min.
MS detection was performed using the Xevo Triple Quadruple MS (Waters Corp.) equipped with an ESI source in both positive and negative ionization modes. The experimental parameters were set as follows: CV 2.80 kV; desolvation temperature 350°C; source temperature […]; cone gas flow 50 L/h; and desolvation gas flow 650 L/h. The detection was carried out using the MRM scan mode. All experimental data were collected in centroid mode using Masslynx 4.1 software (Waters Corp., Milford, USA), and postacquisition quantitative analysis was conducted using Target Lynx program (Waters Corp., Milford, USA).
Plasma specimens (200 μL) were mixed with IS solution (20 μL, 720 ng/mL) in an Eppendorf tube and centrifuged at 4, 000 rpm for 15 min at 4°C. Then, the supernatant was removed from plasma sample. Hydrochloric acid (4 μL) was added into 200 μL plasma sample, and then, the mixture was vortexed for 1 min. Waters OASIS HLB SPE C18 columns (Waters, USA) were used to remove the proteins in plasma samples, and it was preactivated by 3 mL methanol and 3 mL water. Then, 2 mL of 100% methanol was used to wash the column, and the eluate was collected and dried under nitrogen gas (45°C). Subsequently, 100 μL of 100% methanol was used to redissolve the residues, followed by centrifugation at 13, 000 rpm for 15 min at 4°C. Before UPLC-MS/MS analysis, the sample was finally filtered through a 0.22 μm membrane filter.
DAS 3.2 software (Mathematical Pharmacology Professional Committee of China, Shanghai, China, 2011) was applied for the analysis of concentration-time data to investigate the pharmacokinetic parameters of four ginsenosides in various groups. Data were presented as the mean ± SD (standard deviation) with triplicate measurements. A significance level was set at P < 0.05.
Male SD rats were randomly and evenly divided into two groups (n = 6 per group) in pharmacokinetic studies. To evaluate the compatible effect of AG upon PQ treatment, rats were given PQ at a dosage of 0.54 g/kg (equivalent to the amount of raw drug 0.54 g) in the PQ group. PQ-AG was combined with an equal proportion to prepare the mixed extract. The oral dosage in rats was 1.08 g/kg (equivalent to the amount of the raw drug including 0.54 g AG and 0.54 g PQ) in the PQ-AG group. Blood samples were collected at specific time points of 0, 0.25, 0.5, 1.0, 1.5, 2.0, 4.0, 6.0, 8.0, 12.0, 16.0, 24.0, and 48.0 h. All the plasma samples were obtained by centrifuging the blood samples at 3, 500 rpm for 10 min, then labeled and frozen at −80°C prior to analysis.

[3] = extracted high QC (911.4 Rb1, 400.0 Rb2, 312.2 Rd, 630.8 Re ng/mL)
[4] = extracted low QC (7.2 Rb1, 3.2 Rb2, 2.4 Rd, 5.0 Re ng/mL)
[5] = extracted middle QC (142.4 Rb1, 62.5 Rb2, 48.8 Rd, 98.6 Re ng/mL)
[6] = high QC (911.4 Rb1, 400.0 Rb2, 312.2 Rd, 630.8 Re ng/mL)
[7] = low QC (7.2 Rb1, 3.2 Rb2, 2.4 Rd, 5.0 Re ng/mL)
[8] = middle QC (142.4 Rb1, 62.5 Rb2, 48.8 Rd, 98.6 Re ng/mL)
[9] = PQ group: oral PQ extract 0.54 g/kg
[10] = PQ-AG group: oral PQ-AG extract 1.08 g/kg
[11] = 0.54 g/kg, PQ group: oral PQ extract 0.54 g/kg, read-out: AUC0⟶t
[12] = 0.54 g/kg, PQ group: oral PQ extract 0.54 g/kg, read-out: AUC0⟶∞
[13] = 1.08 g/kg, PQ-AG group: oral PQ-AG extract 1.08 g/kg, read-out: AUC0⟶t
[14] = 1.08 g/kg, PQ-AG group: oral PQ-AG extract 1.08 g/kg, read-out: AUC0⟶∞

Re (%) Postpreparation [1, 3]	Recovery (%) Postpreparation [1, 3]	Re (%) Postpreparation [1, 4]	Recovery (%) Postpreparation [1, 4]	Re (%) Postpreparation [1, 5]	Recovery (%) Postpreparation [1, 5]	Re (%) Short term [1, 6]	Recovery (%) Short term [1, 6]	Re (%) Freeze-thaw cycles [1, 6]	Recovery (%) Freeze-thaw cycles [1, 6]	Re (%) Short term [1, 7]	Recovery (%) Short term [1, 7]	Re (%) Freeze-thaw cycles [1, 7]	Recovery (%) Freeze-thaw cycles [1, 7]	Re (%) Short term [1, 8]	Recovery (%) Short term [1, 8]	Re (%) Freeze-thaw cycles [1, 8]	Recovery (%) Freeze-thaw cycles [1, 8]	Cmax [2, 9]	Tmax [2, 9]	SMILES	other results
−6.47%	96.10%	6.86%	101.85%	9.35%	101.65%	7.53%	101.65%	7.75%	101.95%	−7.55%	96.32%	−6.90%	97.66%	7.95%	100.48%	−4.48%	95.35%	461 ± 15.9 ng/mL	7 ± 1.1 h	CC(C)=CCC[C@](C)(O[C@@H]1O[C@H](CO[C@@H]2O[C@H](CO)[C@@H](O)[C@H](O)[C@H]2O)[C@@H](O)[C@H](O)[C@H]1O)[C@H]1CC[C@]2(C)[C@@H]1[C@H](O)C[C@@H]1[C@@]3(C)CC[C@H](O[C@@H]4O[C@H](CO)[C@@H](O)[C@H](O)[C@H]4O[C@@H]4O[C@H](CO)[C@@H](O)[C@H](O)[C@H]4O)C(C)(C)[C@@H]3CC[C@]12C [Rb1]	half-life [2, 9]: 15.6 ± 1.52 h; Cmax [2, 10]: 600 ± 53.6 ng/mL; Tmax [2, 10]: 6.67 ± 1.03 h; half-life [2, 10]: 18.5 ± 2.61 h; AUC [2, 11]: 5980 ± 313 ng·h/mL; AUC [2, 12]: 6150 ± 328 ng·h/mL; AUC [2, 13]: 8130 ± 454 ng·h/mL; AUC [2, 14]: 8410 ± 488 ng·h/mL
7.90%	99.63%	−9.72%	93.37%	2.39%	99.94%	7.11%	98.74%	9.36%	103.82%	−9.70%	93.67%	−9.69%	94.21%	−2.12%	95.33%	6.77%	100.41%	160 ± 18.8 ng/mL	7.67 ± 0.82 h	CC(C)=CCC[C@](C)(O[C@@H]1O[C@H](CO[C@@H]2OC[C@H](O)[C@H](O)[C@H]2O)[C@@H](O)[C@H](O)[C@H]1O)[C@H]1CC[C@]2(C)[C@@H]1[C@H](O)C[C@@H]1[C@@]3(C)CC[C@H](O[C@@H]4O[C@H](CO)[C@@H](O)[C@H](O)[C@H]4O[C@@H]4O[C@H](CO)[C@@H](O)[C@H](O)[C@H]4O)C(C)(C)[C@@H]3CC[C@]12C [Rb2]	half-life [2, 9]: 13.3 ± 1.58 h; Cmax [2, 10]: 264 ± 24.5 ng/mL; Tmax [2, 10]: 7.67 ± 0.82 h; half-life [2, 10]: 15.6 ± 5.21 h; AUC [2, 11]: 1210 ± 99.2 ng·h/mL; AUC [2, 12]: 1230 ± 99.6 ng·h/mL; AUC [2, 13]: 2460 ± 243 ng·h/mL; AUC [2, 14]: 2520 ± 289 ng·h/mL
−7.02%	94.81%	4.43%	100.10%	9.98%	101.71%	7.35%	101.27%	8.12%	102.00%	8.64%	102.66%	−11.93%	97.24%	10.24%	103.61%	8.87%	100.20%	201 ± 7.3 ng/mL	7.67 ± 0.82 h	CC(C)=CCC[C@](C)(O[C@@H]1O[C@H](CO)[C@@H](O)[C@H](O)[C@H]1O)[C@H]1CC[C@]2(C)[C@@H]1[C@H](O)C[C@@H]1[C@@]3(C)CC[C@H](O[C@@H]4O[C@H](CO)[C@@H](O)[C@H](O)[C@H]4O[C@@H]4O[C@H](CO)[C@@H](O)[C@H](O)[C@H]4O)C(C)(C)[C@@H]3CC[C@]12C [Rd]	half-life [2, 9]: 13.1 ± 2.61 h; Cmax [2, 10]: 283 ± 11.1 ng/mL; Tmax [2, 10]: 6.33 ± 0.82 h; half-life [2, 10]: 14.2 ± 1.98 h; AUC [2, 11]: 3010 ± 230 ng·h/mL; AUC [2, 12]: 3320 ± 317 ng·h/mL; AUC [2, 13]: 3870 ± 356 ng·h/mL; AUC [2, 14]: 3960 ± 383 ng·h/mL
9.76%	102.50%	8.54%	104.63%	8.92%	97.21%	8.40%	101.73%	−9.85%	97.39%	−10.71%	97.30%	7.33%	104.07%	12.11%	99.25%	7.53%	94.12%	355 ± 26.6 ng/mL	1.08 ± 0.2 h	CC(C)=CCC[C@](C)(O[C@@H]1O[C@H](CO)[C@@H](O)[C@H](O)[C@H]1O)[C@H]1CC[C@]2(C)[C@@H]1[C@H](O)C[C@@H]1[C@@]3(C)CC[C@H](O)C(C)(C)[C@@H]3[C@@H](O[C@@H]3O[C@H](CO)[C@@H](O)[C@H](O)[C@H]3O[C@@H]3O[C@@H](C)[C@H](O)[C@@H](O)[C@H]3O)C[C@]12C [Re]	half-life [2, 9]: 8.14 ± 1.2 h; Cmax [2, 10]: 460 ± 30.2 ng/mL; Tmax [2, 10]: 0.58 ± 0.2 h; half-life [2, 10]: 9.81 ± 2.15 h; AUC [2, 11]: 2330 ± 214 ng·h/mL; AUC [2, 12]: 2380 ± 224 ng·h/mL; AUC [2, 13]: 3430 ± 294 ng·h/mL; AUC [2, 14]: 3580 ± 396 ng·h/mL
